For orientation: Ki means the equilibrium dissociation constant of an inhibitor or competing ligand from its target. The EC50 is the concentration that produces a half-maximal response.

One experiment deals with T1, mu opioid receptor (Rattus norvegicus, UniProt P33535).
T1 construct: the forebrains were homogenized in Tris buffer in a Teflon®-glass homogenizer; from tissue; host or cells: rat forebrain membrane homogenate (male Wistar rats)
Kind of experiment: Rat brain mu opioid receptor binding assay. Particulars: rat forebrain membranes, ~0.8 nM [3H]DAMGO; read-out: μ-binding Ki.

The next experiment concerns the target T2, δ-opioid receptor (Mus musculus, UniProt P32300).
T2 construct: NG108-15 cell membranes were purchased from Applied Cell Sciences (Rockville, Md.)
In words: [35S]GTPγS δ-opioid receptor functional assay (EC50, relative efficacy, % inhibition). The class given is biochemical.

Experiment [1] addresses T3, delta opioid receptor (Mus musculus, UniProt P32300).
T3 construct: NG108-15 cell membranes were purchased from Applied Cell Sciences (Rockville, Md.); host or cells: NG108-15 cell membranes (purchased)
In words: [35S]GTPγS binding assay in NG108-15 cell membranes (delta opioid functional assay), 200 nM screen. The class given is biochemical. Particulars: 200 nM compound; relative to calculated max of SNC80 dose response. On the procedure:
Methods: NG108-15 cell membranes were purchased from Applied Cell Sciences (Rockville, Md.). 5 mg/mL of membrane protein suspended in 10 mM TRIS-HCl pH 7.2, 2 mM EDTA, 10% sucrose. Membranes were maintained at 4-8° C. A 1 mL volume of membranes was added into 10 mL cold binding assay buffer. The assay buffer contained 50 mM Tris, pH 7.6, 5 mM MgCl2, 100 mM NaCl, 1 mM DTT and 1 mM EGTA. The membrane suspension was homogenized twice with a Polytron, and centrifuged at 3000 rpm for 10 min. The supernatant was then centrifuged at 18,000 rpm for 20 min. Ten mL assay buffer was added into the pellet containing tube. The pellet and buffer were mixed with a Polytron.
Incubation procedure: The pellet membranes (75 μg/mL) were preincubated with SPA (10 mg/mL) at 25° C. for 45 min in the assay buffer. The SPA (5 mg/mL) coupled with membranes (37.5 μg/mL) was then incubated with 0.1 nM [^35S] GTPγS in the same Tris buffer containing 100 μM GDP in total volume of […]. 200 nM of receptor agonists was used to stimulate [^35S]-GTPγS binding. The basal binding was tested in the absence of agonists and non-specific binding was tested in the presence of 10 μM unlabeled GTPγS.
Data % of Basal=(stimulated−non specific)*100/(basal−non specific). Relative Efficacy of a compound at 200 nM=(% of Basal of test compound at 200 nM)/(Calculated Max of SNC80 dose response. Curve in prism).

For experiment [2], the target named is T4, delta opioid receptor (Rattus norvegicus, UniProt P33533).
T4 construct: the forebrains were homogenized in Tris buffer in a Teflon®-glass homogenizer; from tissue; host or cells: rat forebrain membrane homogenate (male Wistar rats)
T4 sequence (P33533 whole entry): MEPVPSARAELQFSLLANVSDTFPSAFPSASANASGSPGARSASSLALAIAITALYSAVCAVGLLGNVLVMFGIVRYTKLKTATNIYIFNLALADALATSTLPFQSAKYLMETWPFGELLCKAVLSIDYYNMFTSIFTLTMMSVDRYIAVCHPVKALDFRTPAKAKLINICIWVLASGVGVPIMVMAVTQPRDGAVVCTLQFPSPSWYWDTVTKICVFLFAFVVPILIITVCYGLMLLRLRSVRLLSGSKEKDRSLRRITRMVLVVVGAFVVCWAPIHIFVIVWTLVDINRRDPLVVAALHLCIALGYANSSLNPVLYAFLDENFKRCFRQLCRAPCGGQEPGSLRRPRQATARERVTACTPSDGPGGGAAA
In words: Rat brain delta opioid receptor binding assay. Particulars: rat forebrain membranes, 0.25 nM [3H]naltrindole; read-out: δ-binding (Naltrindole ligand) Ki. On the procedure: Procedure: Male, Wistar rats (150-250 g, VAF, Charles River, Kingston, N.Y.) were killed by CO2, and their brains were removed and placed immediately in ice cold Tris HCl buffer (50 mM, pH 7.4). The forebrains were separated from the remainder of the brain by a coronal transection, beginning dorsally at the colliculi and passing ventrally through the midbrain-pontine junction. After dissection, the forebrains were homogenized in Tris buffer in a Teflon®-glass homogenizer. The homogenate was diluted to a concentration of 1 g of forebrain tissue per 80 mL Tris and centrifuged at 39,000×g for 10 min. The pellet was resuspended in the same volume of Tris buffer containing 5 mM MgCl2 with several brief pulses from a Polytron homogenizer. […] To each sample area 2×50 μL of Betaplate Scint scintillation fluid (LKB) was added and the radioactivity was quantified on a LKB (Wallac) 1205 BetaPlate liquid scintillation counter.
Analysis: The data from the scintillation counter were used to calculate either the % inhibition compared to control binding (when only a single concentration of test compound was evaluated) or a K1 value (when a range of concentrations was tested). Percent inhibition was calculated as: [(total dpm-test compound dpm)/(total dpm-nonspecific dpm)]*100. Kd and Ki values were calculated using GraphPad PRISM data analysis program.

For the next experiment, the system named is mice. Kind of experiment: Mouse Graded Abdominal Irritant Test (GrAIT). Type of experiment: in vivo. Particulars: 10% Solutol, 30 min pretreatment. As to the method:
Test compound or vehicle was administered s.c. or p.o. to mice. Following the pretreatment time, an i.p. injection of 0.6% of acetic acid in 0.5 mL was administered. Five min after acetic acid administration, mice were placed into clear chambers and were continuously observed for 5 min. Behavioral responses including twisting and elongation of the body that extended through the hindlimbs were counted and averaged for the group of animals over the observation period.

T2 sequence (P32300 whole entry): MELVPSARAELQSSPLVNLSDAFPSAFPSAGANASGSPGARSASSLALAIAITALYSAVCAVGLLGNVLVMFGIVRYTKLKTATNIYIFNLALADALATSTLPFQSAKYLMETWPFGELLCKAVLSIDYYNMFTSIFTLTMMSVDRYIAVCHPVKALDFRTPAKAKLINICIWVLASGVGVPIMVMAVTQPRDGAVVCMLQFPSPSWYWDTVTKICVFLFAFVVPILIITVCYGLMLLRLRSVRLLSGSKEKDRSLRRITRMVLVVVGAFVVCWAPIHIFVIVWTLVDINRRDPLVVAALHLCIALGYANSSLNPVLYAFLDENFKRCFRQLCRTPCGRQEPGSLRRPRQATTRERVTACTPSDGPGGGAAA
T3 sequence (P32300 whole entry): as above
T1 sequence (P33535 whole entry): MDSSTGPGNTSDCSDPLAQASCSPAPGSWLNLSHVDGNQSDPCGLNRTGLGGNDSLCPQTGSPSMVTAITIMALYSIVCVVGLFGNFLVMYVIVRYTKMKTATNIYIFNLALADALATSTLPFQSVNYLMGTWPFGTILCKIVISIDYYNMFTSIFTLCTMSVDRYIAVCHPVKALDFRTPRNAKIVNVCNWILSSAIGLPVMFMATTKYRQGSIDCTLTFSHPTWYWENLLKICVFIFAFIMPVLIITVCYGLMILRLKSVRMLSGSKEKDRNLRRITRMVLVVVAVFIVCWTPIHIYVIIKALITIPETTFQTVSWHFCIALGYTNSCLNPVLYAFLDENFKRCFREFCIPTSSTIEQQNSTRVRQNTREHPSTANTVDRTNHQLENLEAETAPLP
Procedure for mu opioid receptor: Procedure: Male, Wistar rats (150-250 g, VAF, Charles River, Kingston, N.Y.) were killed by CO2, and their brains were removed and placed immediately in ice cold Tris HCl buffer (50 mM, pH 7.4). The forebrains were separated from the remainder of the brain by a coronal transection, beginning dorsally at the colliculi and passing ventrally through the midbrain-pontine junction. After dissection, the forebrains were homogenized in Tris buffer in a Teflon®-glass homogenizer. The homogenate was diluted to a concentration of 1 g of forebrain tissue per 80 mL Tris and centrifuged at 39,000×g for 10 min. The pellet was resuspended in the same volume of Tris buffer containing 5 mM MgCl2 with several brief pulses from a Polytron homogenizer. This particulate preparation was used for the mu opioid binding assays.
Procedure for δ-opioid receptor: Incubation procedure: The pellet membranes (75 μg/mL) were preincubated with SPA (10 mg/mL) at 25° C. for 45 min in the assay buffer. […] GTPγS in the same Tris buffer containing 100 μM GDP in total volume of 200 pt. 200 nM of receptor agonists was used to stimulate [^35S]-GTPγS binding. The basal binding was tested in the absence of agonists and non-specific binding was tested in the presence of 10 μM unlabeled GTPγS.
Compounds were tested for function as antagonists by evaluating their potential to inhibit agonist-stimulated GTPγS binding. Radioactivity was quantified on a Packard TopCount.

Take `Fc1ccc(Oc2cc(-c3ccccc3)ccc2NC[C@@H]2CCCN2)cc1` [Cpd 16]: the Ki at mu opioid receptor is greater than 10 µM. In the case of `COc1ccc(Oc2cc(-c3ccccc3)ccc2NC[C@@H]2CCCN2)cc1` [Cpd 35, (S)-[3-(4-Methoxy-phenoxy)-biphenyl-4-yl]-pyrrolidin-2-ylmethyl-amine], the Ki at mu opioid receptor was greater than 10 µM.

Take `COc1ccc(Oc2cc(-c3cncc(C#N)c3)ccc2NC[C@@H]2CCCN2)cc1` [Cpd 44]: on δ-opioid receptor, the “GTγPS δ-opioid receptor Rel Efficacy” value is 1.1554. In addition, the “GTPγS δ-RelEfficacy @200 nM” value on delta opioid receptor [1] is listed as 0.45. On to `c1ccc(Oc2cc(-c3ccccc3)ccc2NC[C@@H]2CCCN2)cc1` [Cpd 14], for which, on mu opioid receptor, the Ki is greater than 10 µM. For the compound `COc1ccc(Oc2cc(CCc3cccc(F)c3)ccc2NC[C@@H]2CCCN2)cc1` [Cpd 7], the Ki on mu opioid receptor is greater than 10 µM.

Consider `COc1ccc(Oc2cc(-c3ccncc3)ccc2NC[C@@H]2CCCN2)cc1` [Cpd 38], for which the Ki at delta opioid receptor [2] is 0.0155 µM. The Ki at mu opioid receptor came to 4.36 µM. Moreover, on δ-opioid receptor, it took 0.478 µM to reach a half-maximal effect (EC50) and the “GTγPS δ-opioid receptor Rel Efficacy” value stood at 0.8323. Besides, the inhibition at 10 µM on δ-opioid receptor (read-out: GTPγS δ-opioid receptor % Inh @10 μM) was 16.4%. As for `N#Cc1cccc(Oc2cc(-c3ccccc3)ccc2NC[C@@H]2CCCN2)c1` [Cpd 13], the Ki at mu opioid receptor is greater than 10 µM. Take `COc1ccc(Oc2cc(-c3cccnc3)ccc2NC[C@@H]2CCCN2)cc1` [Cpd 39]: the “GTγPS δ-opioid receptor Rel Efficacy” value on δ-opioid receptor is 0.9245. With `CCN(CC)C(=O)c1cccc(Oc2cc(-c3ccccc3)ccc2NC[C@@H]2CCCN2)c1` [Cpd 34], at mu opioid receptor, the Ki is greater than 10 µM.

For `COc1ccc(Oc2cc(-c3ccoc3)ccc2NC[C@@H]2CCCN2)cc1` [Cpd 40], on mu opioid receptor, the Ki was greater than 10 µM. In the case of `NC(=O)c1cccc(Oc2cc(-c3ccccc3)ccc2NC[C@@H]2CCCN2)c1` [Cpd 30], on δ-opioid receptor, the “GTγPS δ-opioid receptor Rel Efficacy” value was 0.2668. On to `Clc1ccc(Oc2cc(-c3ccccc3)ccc2NC[C@@H]2CCCN2)c(Cl)c1` [Cpd 22], for which the Ki at mu opioid receptor was greater than 10 µM. In the case of `COc1ccc(Oc2cc(-c3cncc(C)c3)ccc2NC[C@@H]2C[C@@H](F)CN2)cc1` [Cpd 28], the “GTγPS δ-opioid receptor Rel Efficacy” value on δ-opioid receptor was 0.8756. Regarding `COc1ccc(Oc2cc(-c3cncc(SC)c3)ccc2NC[C@@H]2C[C@@H](F)CN2)cc1` [Cpd 26], the “GTγPS δ-opioid receptor Rel Efficacy” value on δ-opioid receptor was determined as 1.0716. Moreover, the “GTPγS δ-RelEfficacy @200 nM” value at delta opioid receptor [1] is on record as 0.7. For the compound `FC(F)(F)Oc1ccc(Oc2cc(-c3ccccc3)ccc2NC[C@@H]2CCCN2)cc1` [Cpd 17], the Ki on mu opioid receptor was greater than 10 µM. For `COc1ccc(Oc2cc(-c3ccsc3)ccc2NC[C@@H]2CCCN2)cc1` [Cpd 41], the inhibition constant Ki at mu opioid receptor is greater than 10 µM. As to `COc1cccc(Oc2cc(-c3ccccc3)ccc2NC[C@@H]2CCCN2)c1` [Cpd 15], the Ki on mu opioid receptor was greater than 10 µM. As to `CCN(CC)C(=O)/C=C/c1ccc(NC[C@@H]2CCCN2)c(Oc2ccc(OC)cc2)c1` [Cpd 1, (2E)-N,N-Diethyl-3-[3-(4-methoxyphenoxy)-4-{[(2S)-pyrrolidin-2-ylmethyl]amino}phenyl]prop-2-enamide], the “GTγPS δ-opioid receptor Rel Efficacy” value at δ-opioid receptor was determined as 0.8328. Further, the “# abdominal stretches (cpd)” value with mice (30 mg/kg s.c.) is on record as 10.9. For `COc1ccc(Oc2cc(-c3cncnc3)ccc2NC[C@@H]2CCCN2)cc1` [Cpd 42], the “GTPγS δ-RelEfficacy @200 nM” value on delta opioid receptor [1] was 0.39.

For the compound `COc1ccc(Oc2cc(CCc3cccc(OC)c3)ccc2NC[C@@H]2CCCN2)cc1` [Cpd 4], the Ki at mu opioid receptor was greater than 10 µM. Regarding `CCN(CC)C(=O)CCc1ccc(NC[C@@H]2CCCN2)c(Oc2ccc(OC)cc2)c1` [Cpd 2, N,N-Diethyl-3-[3-(4-methoxyphenoxy)-4-{[(2S)-pyrrolidin-2-ylmethyl]amino}phenyl]propanamide], the “GTγPS δ-opioid receptor Rel Efficacy” value at δ-opioid receptor was found to be 0.8333.

With `CNCCNc1ccc(Oc2ccc(OC)cc2)cc1Oc1ccc(OC)cc1` [Cpd 63, N-[2,4-Bis-(4-methoxy-phenoxy)-phenyl]-N′-methyl-ethane-1,2-diamine], the Ki at mu opioid receptor is greater than 10 µM.

As for `O=C(O)c1cccc(Oc2cc(-c3ccccc3)ccc2NC[C@@H]2CCCN2)c1` [Cpd 32], on mu opioid receptor, the Ki is greater than 10 µM. For `COc1ccc(Oc2cc(-c3cncc(OC)c3)ccc2NC[C@@H]2C[C@@H](F)CN2)cc1` [Cpd 27], the Ki on mu opioid receptor was greater than 10 µM.

Take `COC(=O)c1ccc(Oc2cc(-c3ccccc3)ccc2NC[C@@H]2CCCN2)cc1` [Cpd 20]: the Ki on mu opioid receptor is greater than 10 µM. For the compound `COc1ccc(Oc2cc(-c3cncc(C#N)c3)ccc2NC[C@@H]2C[C@@H](F)CN2)cc1` [Cpd 24, (2S,4R)-5-[4-[(4-Fluoro-pyrrolidin-2-ylmethyl)-amino]-3-(4-methoxy-phenoxy)-phenyl]-nicotinonitrile], the “GTγPS δ-opioid receptor Rel Efficacy” value at δ-opioid receptor was 1.0158. For the same compound, the “GTPγS δ-RelEfficacy @200 nM” value at delta opioid receptor [1] is on record as 1.01. As for `Oc1ccc(Oc2cc(-c3cccnc3)ccc2NC[C@@H]2CCCN2)cc1` [Cpd 45, (S)-4-{5-Pyridin-3-yl-2-[(pyrrolidin-2-ylmethyl)-amino]-phenoxy}-phenol], the “GTγPS δ-opioid receptor Rel Efficacy” value at δ-opioid receptor was determined as 0.627.

For the compound `COc1ccc(Oc2cc(-c3ccccc3)ccc2N2CCNCC2)cc1` [Cpd 46, 1-[3-(4-Methoxy-phenoxy)biphenyl-4-yl]piperazine], the Ki on mu opioid receptor is greater than 10 µM. As to `COc1ccc(Oc2cc(-c3cccc4ccccc34)ccc2NC[C@@H]2CCCN2)cc1` [Cpd 37], the Ki at mu opioid receptor is greater than 10 µM.

As for `Clc1cccc(Cl)c1Oc1cc(-c2ccccc2)ccc1NC[C@@H]1CCCN1` [Cpd 18], the Ki on mu opioid receptor is greater than 10 µM. Also, the “GTγPS δ-opioid receptor Rel Efficacy” value on δ-opioid receptor was determined as 0.763. With `COC(=O)c1cccc(Oc2cc(-c3ccccc3)ccc2NC[C@@H]2CCCN2)c1` [Cpd 21], the Ki on mu opioid receptor was greater than 10 µM. On to `CCN(CC)C(=O)c1ccc(NC[C@@H]2CCCN2)c(Oc2ccccc2OC)c1` [Cpd 11], for which the Ki at mu opioid receptor is greater than 10 µM.

As for `COc1ccc(Oc2ccc(NC[C@@H](N)CO)c(Oc3ccc(OC)cc3)c2)cc1` [Cpd 55], on mu opioid receptor, the Ki is greater than 10 µM.

Take `COc1ccc(Oc2cc(CCc3ccccc3)ccc2NC[C@@H]2CCCN2)cc1` [Cpd 5]: the Ki on mu opioid receptor is greater than 10 µM. In the case of `COc1ccc(Oc2cc(CCc3ccc(F)cc3)ccc2NC[C@@H]2CCCN2)cc1` [Cpd 6], the Ki at mu opioid receptor is greater than 10 µM. In the case of `CCN(CC)C(=O)c1ccc(NC[C@@H]2CCCN2)c(Oc2ccc(OC)cc2)c1` [Cpd 10], the “# abdominal stretches (cpd)” value is on record as 19 in the experiment on mice (30 mg/kg p.o.), 11 with mice (30 mg/kg s.c.), 17.9 in the experiment with mice (100 mg/kg p.o.) and 21.2 in the experiment on mice (300 mg/kg p.o.).

Turning to `COc1ccc(Oc2cc(-c3cncc(F)c3)ccc2NC[C@@H]2C[C@@H](F)CN2)cc1` [Cpd 25], on δ-opioid receptor, the “GTγPS δ-opioid receptor Rel Efficacy” value was determined as 1.0217. Further, at delta opioid receptor [1], the “GTPγS δ-RelEfficacy @200 nM” value is given as 0.78. `COc1ccc(Oc2cc(-c3cncc(F)c3)ccc2NC[C@@H]2CCCN2)cc1` [Cpd 43]: at δ-opioid receptor, the “GTγPS δ-opioid receptor Rel Efficacy” value is recorded as 1.0908. Moreover, the “GTPγS δ-RelEfficacy @200 nM” value at delta opioid receptor [1] is reported as 0.43.

The values are drawn from patent publication US8846655B2, “4-substituted-2-phenoxy-phenylamine delta opioid receptor modulators” (Janssen Pharmaceutica, NV, priority 2009, dated 2014).
